Test results from patent US6469063B1, “Inhibition of inflammation via inhibition of COX-2 gene transcription” (City of Hope, priority 1999, dated 2002).
Values joined by “and” are separate entries in the source; they are usually repeats but may differ in a detail not shown here. Equal values may be shown once. “Also recorded” adds a separate entry of the source.

Key:
[1] = test system: COX-2 mRNA; test: Semi-quantitative RT-PCR of COX-2 gene expression in RIN m5F cells; format: cell-based, rat; details: IL-1β 0.3 ng/ml, HETEs 1-100 nM
Experimental: (§1) RIN m5F cells were cultured to near confluence in RPMi-1640 medium (Life Technologies, Inc., Grand Island, N.Y.) plus 10% FCS plus 1% HEPES and penicillin/streptomycin. Prior to addition of IL-1β the cells were depleted in RPMI-1640 medium plus 0.2% BSA for 24 hours. The cells were gently washed in PBS and depletion medium was added back. At this time CDC (Biomol Research Lab, Inc., Plymouth Meeting, PA) (1-10 μM) was added in certain experiments 60 minutes prior to IL-1β addition. 12-HETE (1-100 nM) and 15-HETE (1-100 nM) (Biomol Research Lab, Inc., Plymouth Meeting, Pa.) were added to certain experiments in 0.1% ethanol. The cells were cultured for an additional 24 hours at which time medium was collected for PGE2 assay. For mRNA experiments, total RNA was extracted from RIN m5F cells 3 hours after the addition of IL-1 β, 12-HETE, or 15-HETE. 12HETE and 15-HETE were stored at −70 C. in the dark and added to cell culture dishes in the dark. Control experiments included the addition of 0.1% ethanol alone to RIN m5F cell cultures.
(§2) RIN m5F cells were cultured as set forth in Example 1, in the presence or absence of IL-1β (0.3 ng/ml), 12-S-HETE (1-100 nM), or 15-S-HETE (1-100 nM) for […]. Total RNA was extracted and semiquantitative RT-PCR was performed using COX-2 specific primers.
Total RNA was extracted from RIN m5F cells with RNA STAT-60 (Tel-Test, Inc., Friendswood, Tex.). RNA (1 μg) was diluted in 12.5 μl DEPC-H20 and reverse transcribed with the 1st-Strand™ cDNA Synthesis Kit (CLONTECH laboratories, Inc., Palo Alto, Calif.), using oligo dT primers, recombinant RNase inhibitor, and MMLV reverse transcriptase to generate template cDNA for PCR amplification. Each PCR reaction was done on RNA from one 100 mm culture dish for the stated experimental conditions. Twenty picomoles of each primer (shown below) was mixed with 1 unit of Taq gold polymerase (Perkin Elmer, Inc.) in 50 μl final volume. Samples were amplified with an initial 45 second denaturation step at 94° C. followed by 25 cycles of 45 seconds at 60° C., and 25 cycles of 2 minutes at 72° C.. The last cycle was extended for an additional 7 minutes at 72° C. PCR cycling was done with a Gene Amp PCR System 2400 (Perkin Elmer/Cetus Corp., Norwalk, Conn.). DNA primers were synthesized in the DNA/RNA Core Chemistry Laboratory at City of Hope National Medical Center. The sequences of the primers are shown below.
PCR products were analyzed by electrophoresis with 1.8% agarose gel. The DNA was transferred to nylon membranes and hybridized sequentially to ^32P-labeled probes for COX-1, COX-2, and GAPDH using a random Primed DNA labeling kit (Boehringer Mannheim). GAPDH was used as an internal control. Hybridization and autoradiography were performed according to previously published methods.

[2] = test system: PGE2 production (COX-2 activity); test: PGE2 production in RIN m5F cells (RIA of conditioned medium); format: cell-based, rat; details: for PGE2 production in conditioned medium: 24 hours after addition of agent
Experimental: as §1
In addition, PGE2 production was measured under the same conditions, but over a 24 hour period. COX-2 activity was determined by measuring the accumulation of PGE2 in the conditioned media. Cells were cultured in 24 well plates for 24 hours and subject to the experimental conditions described above. PGE2 was measured in conditioned medium using a commercial RIA kit. Statistical analysis of PGE2 levels was performed using the Student's t-test with GraphPad Prism™ software (GraphPad Software, Inc, San Diego, Calif.).

[3] = test system: COX-1 mRNA; test: Semi-quantitative RT-PCR of COX-1 gene expression in RIN m5F cells; format: cell-based, rat; details: same experiments as COX-2 mRNA
Experimental: as §1, §2
Total RNA was extracted from RIN m5F cells with RNA STAT-60 (Tel-Test, Inc., Friendswood, Tex.). RNA (1 μg) was diluted in 12.5 μl DEPC-H20 and reverse transcribed with the 1st-Strand™ cDNA Synthesis Kit (CLONTECH laboratories, Inc., Palo Alto, Calif.), using oligo dT primers, recombinant RNase inhibitor, and MMLV reverse transcriptase to generate template cDNA for PCR amplification. Each PCR reaction was done on RNA from one 100 mm culture dish for the stated experimental conditions. Twenty picomoles of each primer (shown below) was mixed with 1 unit of Taq gold polymerase (Perkin Elmer, Inc.) in 50 μl final volume. […]
PCR products were analyzed by electrophoresis with 1.8% agarose gel. […]

[4] = test system: COX-2 protein; test: Western immunoblot of COX-2 protein expression in RIN m5F cells; format: cell-based, rat; details: 12-HETE 1-10 nM, 24 hours; for increase in COX-2 protein: IL-1β 0.3 ng/ml
Experimental: as §1
This Example investigates the mechanism(s) of this resistance. RIN m5F cells, cultured as set forth in Example 1, were stimulated with IL-1β and 12-HETE and total protein extracts were used for Western immunoblotting with an anti-COX-2 antibody.
The RIN m5F cells (−300 per blot) were lysed in a 1% Triton-0.1% SDS buffer in normal saline (pH 7.4) with 10 mM HEPES plus 1 mM EDTA and standard protease inhibitors. Cell lysates were centrifuged at 14,000×9 for 10 minutes and a modified BCA protein assay was performed. Protein aliquots (50 μg per sample) were treated with Laemmeli sample buffer and then heated to 100° C. for 5 minutes. Proteins were separated on 10% SDS-PAGE and transferred to polyvinylidene difluoride membranes (Immobilon-P) in 10 mM CAPS buffer, 10% methanol at pH 11. The immunoblots were blocked overnight in 5% nonfat dried milk in Tris buffer containing 0.1% Tween-20. […]

[5] = test system: COX-2 gene transcription; details: higher concentrations; cited from earlier work
[6] = test system: prostaglandin synthesis; details: 10-100 mg/kg; cited from earlier work
[7] = molecular target: T1, 5-lipoxygenase (Homo sapiens, UniProt P09917); details: cited from earlier work
T1 sequence (P09917 1-674): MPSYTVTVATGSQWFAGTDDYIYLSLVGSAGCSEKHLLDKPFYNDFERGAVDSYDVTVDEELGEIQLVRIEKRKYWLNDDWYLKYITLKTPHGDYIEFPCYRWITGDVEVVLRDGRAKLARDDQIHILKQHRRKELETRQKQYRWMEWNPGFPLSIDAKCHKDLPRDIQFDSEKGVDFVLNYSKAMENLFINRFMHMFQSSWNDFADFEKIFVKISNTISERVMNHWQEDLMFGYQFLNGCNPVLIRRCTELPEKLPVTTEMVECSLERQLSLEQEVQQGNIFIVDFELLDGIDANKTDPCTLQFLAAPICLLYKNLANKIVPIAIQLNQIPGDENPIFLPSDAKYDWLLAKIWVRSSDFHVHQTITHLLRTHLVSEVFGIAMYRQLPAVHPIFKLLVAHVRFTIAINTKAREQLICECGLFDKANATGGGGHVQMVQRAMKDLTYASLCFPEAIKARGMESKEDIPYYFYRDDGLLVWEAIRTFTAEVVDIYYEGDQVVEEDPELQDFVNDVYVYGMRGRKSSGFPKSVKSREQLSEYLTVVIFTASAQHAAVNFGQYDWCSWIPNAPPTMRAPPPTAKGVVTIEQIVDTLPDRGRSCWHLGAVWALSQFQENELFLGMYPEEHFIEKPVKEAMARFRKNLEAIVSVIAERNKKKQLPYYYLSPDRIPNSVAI

[8] = molecular target: 12-lipoxygenase; details: cited from earlier work
[9] = molecular target: 15-lipoxygenase; details: cited from earlier work
[10] = test system: COX-2 protein; test: Western immunoblot of COX-2 protein in cultured intact porcine pancreatic islets; format: cell-based; details: 24 hours
Experimental: The RIN m5F cells (−300 per blot) were lysed in a 1% Triton-0.1% SDS buffer in normal saline (pH 7.4) with 10 mM HEPES plus 1 mM EDTA and standard protease inhibitors. Cell lysates were centrifuged at 14,000×9 for 10 minutes and a modified BCA protein assay was performed. Protein aliquots (50 μg per sample) were treated with Laemmeli sample buffer and then heated to 100° C. for 5 minutes. Proteins were separated on 10% SDS-PAGE and transferred to polyvinylidene difluoride membranes (Immobilon-P) in 10 mM CAPS buffer, 10% methanol at pH 11. The immunoblots were blocked overnight in 5% nonfat dried milk in Tris buffer containing 0.1% Tween-20. The blots were incubated for 2 hours at room temperature with anti COX-2 antibodies (Cayman Chemical Co., Ann Arbor, Mich.) diluted 1:2000 in the same Tris buffer without nonfat dried milk. The blots were washed and then incubated with horseradish peroxidase conjugated secondary antibodies at 1:2000 dilution. The protein bands were visualized with enhanced chemiluminescence reagents using X-AR film.
Next, Western immunoblots were performed on protein extracts from porcine islets treated in a similar fashion with IL-1β and lysed as set forth about for RIN m5F cells. Because of the concern that 12-HETE would not permeate the islet mass, the 12-LO inhibitor CDC (1 μM) was used instead with or without the addition of IL-1β, in order to determine the role of the 12-LO pathway on COX-2 protein expression.

[11] = test system: HIT cells; details: HIT cells treated with IL-1β for 24 hours; cited from earlier work
[12] = test system: leukocyte influx and prostaglandin synthesis; details: oral, 3 mg/kg, over a 24 hour period; cited from earlier work
[13] = test system: PGE2 production; test: PGE2 production in islets from C57BL/6 and 12-LO knockout mice; format: cell-based, mouse; details: for PGE2 generated by IL-1β stimulated islets: 24 hours
Experimental: Generation of 12-LO knockout has been previously described. All animal studies were performed in accordance with guidelines set forth by the Research Animal Care Committee of City of Hope National Medical Center. Islet isolation and culturing techniques have been detailed previously. Briefly, mouse pancreas was removed, minced, and poured into a siliconized 25 ml Ehrlenmeyer flask with Type Xl collagenase solution (Sigma Chemical Co, St. Louis, Mo.). The pancreatic digest was incubated in a shaker-type water bath at 37 C. for 6-10 minutes. The digest was centrifuged, poured into a black back petri dish, and islets were picked by hand under a microscope. The islets were aliquoted into sterile 6-well plates (Sarstedt, Newton, N.C.) and cultured in RPMI 1640 medium containing 11 mM glucose and supplemented with 10% FCS and 1% HEPES. Typically, we isolate −75-100 islets per mouse. For PGE2 experiments, 100 islets per well in 300 μl RPMI medium were cultured overnight prior to additions. The following morning the medium was changed to RPMI 1640 medium plus 0.2% BSA and the islets were allowed to equilibrate for one hour. Then, IL-1β (R & D Systems, Minneapolis, Minn.) was added to the appropriate experiments. All islet experiments were run in triplicate and repeated three times for reproducibility.
Isolated islets (100 per experiment) were brought to culture and incubated overnight as described. After approximately 18 hours IL-1β was added to the medium and the islets were incubated for an additional 24 hours. PGE2 production was measured as set forth in Example 3.

CCCCC/C=C\C[C@@H](O)/C=C/C=C\C/C=C\CCCC(=O)O [12-HETE, 12-hydroxyeicosatetraenoic acid, reference compound]
increase in COX-2 mRNA expression [1]: 3 fold
increase in PGE2 relative to 15-HETE ([2]; 24 hours): 10 fold
PGE2 production in conditioned medium [2]: ~1250 pg/mL
COX-1 mRNA expression / gene transcription [3]: No appreciable difference; also recorded: neither IL-1β,nor 12-HETE stimulated
COX-2 protein stimulation compared to IL-1β (0.3 ng/ml) [4]: equipotent
increase in COX-2 protein [4]: 3 fold

CCCCC[C@H](O)/C=C/C=C\C/C=C\C/C=C\CCCC(=O)O [15-HETE, 15-hydroxyeicosatetraenoic acid, reference compound]
increase in COX-2 mRNA expression [1]: 1.5 fold
PGE2 production in conditioned medium [2]: ~125 pg/mL

O=C(/C=C/c1ccc(O)c(O)c1)OCCc1ccccc1 [CAPE, caffeic acid phenethyl ester]
concentration inhibiting COX-2 gene transcription [5]: 35 to 70 µM
prostaglandin synthesis in rat carrageenan air pouch [6]: inhibited prostaglandin synthesis in a dose-dependent fashion

N#CC(=Cc1ccc(O)c(O)c1)C(=O)OCC=Cc1ccccc1 [CDC, cinnamamyl-3,4-dihydroxy-α-cyanocinnamate]
IC50 [7]: 3330 nM
IC50 [8]: 63 nM
IC50 [9]: 1890 nM
inhibition of IL-1β induced PGE2 production ([2]; CDC 1 μM (1-10 μM)): completely inhibited; also recorded: statistically significant decrease; also recorded: statistically significant inhibition; also recorded: dose-dependent
IL-1β induced PGE2 production in presence of CDC ([2]; CDC 1 μM added 60 minutes before IL-1β, 24 hours): 169+5 pg/ml
effect on IL-1β stimulated increase in COX-2 protein ([10]; CDC 1 μM plus IL-1β): completely inhibited; also recorded: completely eliminated this response
effect on basal COX-2 protein levels ([10]; CDC alone): did not appreciably affect

CS(=O)(=O)Nc1ccc([N+](=O)[O-])cc1OC1CCCCC1 [NS-398]
glucose-stimulated insulin secretion [11]: partially restored

CS(=O)(=O)Nc1ccc(Oc2ccc(F)cc2)s1 [RWJ63556]
inhibition of leukocyte influx [12]: significant sustained inhibition
inhibition of prostaglandin synthesis [12]: significant sustained inhibition

interleukin-1β [IL-1β]
increase in COX-2 mRNA expression [1]: 2 fold
increase in COX-2 mRNA expression ([1]; listed as IL-1 β): 2 fold and 1.5 fold
PGE2 production in conditioned medium [2]: ~500 pg/ml and 388+27 pg/ml
COX-1 mRNA expression / gene transcription [3]: neither IL-1β,nor 12-HETE stimulated
COX-1 mRNA expression / gene transcription ([3]; listed as IL-1 β): No appreciable difference
PGE2 production upon stimulation with IL-1β (words) ([13]; 12-LO knockout mouse islets): fail to stimulate prostaglandin E2 production
PGE2 generated by IL-1β stimulated islets ([13]; 12-LO knockout mouse islets): 78+15 pg/ml
PGE2 production upon stimulation with IL-1β (words) ([13]; 12-LO knockout mouse islets, listed as IL-1 β): no appreciable PGE2 production
increase in PGE2 production with IL-1β stimulation ([13]; C57BL/6 mouse islets): 8 fold and 7 fold
PGE2 generated by IL-1β stimulated islets ([13]; C57BL/6 mouse islets): 5405+1012 pg/ml
increase in COX-2 protein [4]: 2.5 fold
increase in COX-2 protein ([10]; IL-1β 0.3 ng/ml): 3 fold
